Values quoted from earlier work in patent publication US8709164B2, “Methods and compositions for dislodging debris particles from a substrate” (University of South Carolina, priority 2010, dated 2014).

How the values were obtained:
D. farinae = conditions: among 15 chemicals
D. pteronyssinus = conditions: washing soak with addition of 0.03% benzyl benzoate

SMILES | ability to kill D. farinae (words, order of potency) (D. farinae) | mites survived out of 10,000 (D. pteronyssinus)
O=C(OCc1ccccc1)c1ccccc1 [benzyl benzoate] | most effective | approximately 50
CCN(CC)c1nc(C)cc(OP(=S)(OC)OC)n1 [pirimiphosmethyl] | most effective | 
Cl[C@H]1[C@H](Cl)[C@@H](Cl)[C@@H](Cl)[C@H](Cl)[C@H]1Cl [Lindane] | most effective | 
